Measured values reported in US8580776B2, “Compositions and methods for treating neurodegenerating diseases” (The Board of Trustees of the University of Illinois, priority 2007, dated 2013).

Tests used:
[1] = tested on: IκBα; assay: QPCR of IκBα mRNA in frontal cortex of DSP4-treated rats; assay type: in vivo, rat
Protocol: In this experiment, the effects of DSP4 on tyrosine hydroxylase (TH) and IkBα expression were analyzed. Adult rat Sprague Dawley rats were treated with the selective neurotoxin DSP4 to lesion locus ceruleus (LC) noradrenergic neurons and deplete cortical NA levels as described in Example 1.
RNA samples from control or DSP4-treated rats (n=4 each) were converted to cDNA and analyzed by QPCR for relative levels of tyrosine hydroxylase (TH) (FIG. 6A) in the locus ceruleus (LC).
Total cytoplasmic RNA from tissues was prepared from cells using TRIZOL reagent according to manufacturer procedures (Invitrogen/GIBCO); aliquots were converted to cDNA using random hexamer primers, and mRNA levels were estimated by quantitative touchdown PCR (QPCR). Conditions were 35 cycles of denaturation at 94° C. for 10 s; annealing at 58-64° C. for 15 s; and extension at 72° C. for 20 s on a Corbett Rotorgene Real-Time PCR unit (Corbett, Australia). The PCR mastermix contained SYBR Green (1 μl diluted 1:10,000 SybrGreen I 10,000× concentrate, Molecular Probes, Eugene, Oreg.). Relative mRNA concentrations were calculated from the takeoff point of reactions using manufacturer's software. Melting curve analysis and agarose gel electrophoresis were performed to ensure production of single and corrected size products. […]

[2] = tested on: insulin degrading enzyme (IDE); assay: QPCR of insulin degrading enzyme mRNA in brain samples; assay type: in vivo, mice; settings: cortical samples, versus vehicle
Protocol: Total cytoplasmic RNA from tissues was isolated using TRIZOL reagent, (Invitrogen/GIBCO); aliquots were converted to cDNA using random hexamer primers, and mRNA levels were estimated by quantitative touchdown PCR (QPCR). PCR conditions were 35 cycles of denaturation at 94° C. for 10 s; annealing at 58-64° C. for 15 s; and extension at 72° C. for 20 s on a Corbett Rotorgene Real-Time PCR unit (Corbett, Australia). PCR was done using Taq DNA Polymerase (Invitrogen), and contained SYBR Green (SybrGreen1 10,000× concentrate, diluted 1:10,000; Molecular Probes, Eugene, Oreg.). Relative mRNA concentrations were calculated from the takeoff point of reactions using manufacturer's software, and were normalized to α-tubulin, β-actin, and glyceraldehyde-3-phosphate dehydrogenase (GDH). Melting curve analysis and agarose gel electrophoresis ensured production of single and corrected size products. The primers used were: […]
Comparative real time RT-PCR (or quantitative PCR, QPCR) was used to measure mRNA levels of the Aβ degrading enzymes neprilysin (Nep) and insulin degrading enzyme (IDE) in brain samples from vehicle and DSP4 treated mice (FIG. 4A). […] To assess the effects of dose, mouse neuronal N2A cells were incubated with increasing does of NA for 24 hr after which NEP activity was measured (FIG. 4D, data is mean±sd and is from n=3 samples). […]

Question: Which “cortical IκBα mRNA levels” value ([1]; P<0.01) does the source give for `CCN(CCCl)Cc1ccccc1Br` [DSP4, N-(2-chloroethyl)-N-ethyl-2-bromobenzylamine] here?
Answer: 45 % versus control values

Question: And the “reduction of cortical IκBα mRNA levels” value ([1]; versus control values, n=4, P<0.01)?
Answer: 55%

Question: And the “levels of insulin degrading enzyme (IDE) mRNA” value [2]?
Answer: small, non-significant reductions
